Here are results for 19 compounds from US8278301B2, “2-alkylbenzoxazole carboxamides as 5HT3 modulators” (Albany Molecular Research, Inc., priority 2006, dated 2012).

Where a name gives a salt, the structure may show the parent alone.

In test [1] the target is T1, human 5-HT3 receptor (Homo sapiens, UniProt P46098).
T1 sequence (P46098 24-478): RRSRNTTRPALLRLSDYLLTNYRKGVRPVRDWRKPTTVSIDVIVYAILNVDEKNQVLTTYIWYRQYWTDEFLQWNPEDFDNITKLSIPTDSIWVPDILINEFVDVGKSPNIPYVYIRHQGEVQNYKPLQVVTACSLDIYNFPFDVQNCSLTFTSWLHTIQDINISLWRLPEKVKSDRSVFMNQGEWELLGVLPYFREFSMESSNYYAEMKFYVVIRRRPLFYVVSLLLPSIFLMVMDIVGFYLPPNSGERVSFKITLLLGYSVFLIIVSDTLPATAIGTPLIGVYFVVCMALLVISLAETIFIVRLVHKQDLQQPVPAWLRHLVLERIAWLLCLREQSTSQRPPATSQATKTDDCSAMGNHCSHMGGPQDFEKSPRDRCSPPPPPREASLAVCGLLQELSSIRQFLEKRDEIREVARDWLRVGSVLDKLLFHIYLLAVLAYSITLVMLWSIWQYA
Nature of the test: Compound affinity for the human 5-HT3 receptor (Assay D), [3H]BRL 43694 radioligand binding, Cerep. More on the design: host or cells: CHO cells. The method, then: Compound Affinity for the Human 5-HT3Receptor (Assay D)
Compounds were tested by Cerep, Le Bois l'Evêque—B.P. 1-86600 Celle, L'Evescault, France in a radioligand binding assay using the human recombinant 5-HT3 receptor (CHO cells, Hope, A. G., Peters, J. A., Brown, A. M., Lambert, J. J. and Blackburn, T. P. Brit. J. Pharmacol., 1996, 118: 1237-1245) and [^3H]BRL 43694 (ligand) with a […] at 22° C. For the above studies, the non-specific binding determinant was MDL 72222 (10 μM). The IC50 values (concentration causing a half-maximal inhibition of control specific binding) and Hill coefficients were determined by non-linear regression analysis of the competition curves using Hill equation curve fitting. The inhibition constants (Ki) were calculated from the Cheng Prusoff equation (Ki=IC50/(1+(L/KD)), where L=concentration of radioligand in the assay, and KD=affinity of the radioligand for the receptor).
(§1) In the table below, the assay in which the data were obtained is shown (as A, B. C, or D) along with the data.

The target in a further test is T2, mouse 5-HT3 receptor (Mus musculus, UniProt P23979).
T2 construct: host or cells: mouse neuroblastoma cells (N1E-155 as printed)
T2 sequence (P23979 24-489): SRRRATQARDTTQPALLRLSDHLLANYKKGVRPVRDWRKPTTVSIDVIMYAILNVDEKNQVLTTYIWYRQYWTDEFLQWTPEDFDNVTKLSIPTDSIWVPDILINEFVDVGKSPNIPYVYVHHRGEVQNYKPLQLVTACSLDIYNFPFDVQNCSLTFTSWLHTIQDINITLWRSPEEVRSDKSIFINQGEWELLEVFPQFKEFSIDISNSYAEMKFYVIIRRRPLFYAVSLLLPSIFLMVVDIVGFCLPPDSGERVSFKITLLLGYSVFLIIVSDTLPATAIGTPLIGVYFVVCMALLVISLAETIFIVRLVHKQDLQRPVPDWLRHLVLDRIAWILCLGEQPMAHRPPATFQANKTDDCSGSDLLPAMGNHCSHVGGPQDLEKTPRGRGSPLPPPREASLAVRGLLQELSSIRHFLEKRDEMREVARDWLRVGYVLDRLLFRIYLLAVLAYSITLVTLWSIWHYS
Nature of the test: Compound affinity for the mouse 5-HT3 receptor (Assay C), [3H]-GR65630 radioligand binding, Novoscreen. The note with it: Assay C; single concentration 100 nM, in duplicate; [3H]-GR65630; read-out: Mouse % Inhibition @ 100 nM. The procedure:
Compound Affinity for the Mouse 5-HT3Receptor (Assay C)
(§2) Compounds were tested by Novoscreen Biosciences Corporation, 7170 Standard Drive, Hanover, Md. in a radioligand binding assay using the mouse 5-HT3 receptor derived from mouse neuroblastoma cells and [^3H]-GR65630 (ligand). The non-specific binding determinant was MDL 72222. Compounds were tested at a single concentration of 100 nM in duplicate. Percent inhibition is reported. In order to evaluate the relative affinity of the various compounds for the 5-HT3 receptor, N1E-155 cell lines were developed to express the target protein. For binding, these cells were homogenized, centrifuged and washed with buffer (20 mM HEPES, 150 mM NaCl, pH 7.4) then suspended in 0.5 mL of buffer and [^3H]-GR65630 added at a concentration of 3.5×10^−10 M. An initial single concentration of 10^−7 M of the test compound was then added. Incubation was carried out at room temperature for 60 minutes at 25° C. then was terminated by rapid removal of the incubation medium. Radioactivity was assessed using liquid scintillation spectrophotometry after exposure to scintillation cocktail for at least three hours. […] Ki values were then calculated from the Cheng-Prusoff equation. In all of the above binding studies the non-specific determinant was MDL-72222 (1.0 μM).
as §1

In test [2] the target is T1, human 5-HT3 receptor. The experiment in a line: Compound affinity for the human 5-HT3 receptor (Assay A), [3H]-GR65630 radioligand binding, MDS Pharma. Set-up: host or cells: N1E-155 cell lines (so in the source). The procedure:
Compound Affinity for the Human 5-HT3 Receptor (Assay A)
as §2, with “tested by MDS Pharma Services—Taiwan Ltd., 158 Li—The Road, Peitou, Taipei, Taiwan 112 R.O.C. In order” for “tested by Novoscreen Biosciences Corporation, 7170 Standard Drive, Hanover, Md. in a radioligand binding assay using the mouse 5-HT3 receptor derived from mouse neuroblastoma cells and [^3H]-GR65630 (ligand). The non-specific binding determinant was MDL 72222. Compounds were tested at a single concentration of 100 nM in duplicate. Percent inhibition is reported. In order”, “for the human 5-HT3 receptor,” for “for the 5-HT3 receptor,”
as §1

Setting [3] is: Assay D, recombinant receptor in CHO cells, [3H]BRL 43694, Cheng-Prusoff, read-out: Human 5HT3 Ki.
Where [4] appears, read: Assay A, [3H]-GR65630, Cheng-Prusoff, read-out: Human 5HT3 Ki.

As a reminder, the Ki is the dissociation constant of the complex between target and ligand, obtained from inhibition or displacement. Broadly, the inhibition is the drop in the measured response relative to a control, in per cent. As for `CN1[C@@H]2CCC[C@H]1C[C@@H](NC(=O)c1cccc3oc(CC4CC4)nc13)C2` [Example 11, Endo-N-(9-Methyl-9-azabicyclo[3.3.1]non-3-yl)-2-(cyclopropylmethyl)benzoxazole-4-carboxamide Hydrochloride], the Ki at human 5-HT3 receptor [1] was determined as 0.0086 µM. The inhibition at 0.1 µM at mouse 5-HT3 receptor stood at 98.6%.
Regarding `O=C(N[C@@H]1CN2CCC1CC2)c1cc(F)cc2oc(C3CC3)nc12` [Example 19, (S)—N-(1-Azabicyclo[2.2.2]oct-3-yl)-6-fluoro-2-cyclopropylbenzoxazole-4-carboxamide Hydrochloride], the Ki at human 5-HT3 receptor [1] (setting [3]) came to 0.044 µM.
With `CC1CC1c1nc2c(C(=O)NC3CC4CCCC(C3)N4C)cccc2o1` (stereo not drawn) [Example 13, Endo-N-(9-Methyl-9-azabicyclo[3.3.1]non-3-yl)-2-(2-methylcyclopropyl)benzoxazole-4-carboxamide Hydrochloride], the inhibition at 0.1 µM at mouse 5-HT3 receptor turned out to be 88.1%. In addition, the Ki on human 5-HT3 receptor [2] came out at 0.00574 µM.
`CN1[C@@H]2CCC[C@H]1C[C@@H](NC(=O)c1cccc3oc(C(C)(C)C)nc13)C2` [Example 3, Endo-N-(9-Methyl-9-azabicyclo[3.3.1]non-3-yl)-2-tert-butylbenzoxazole-4-carboxamide] returned a Ki at human 5-HT3 receptor [1] of 0.0047 µM. Moreover, the inhibition at 0.1 µM at mouse 5-HT3 receptor was found to be 104%.
For `O=C(N[C@@H]1CN2CCC1CC2)c1cccc2oc(C3CCC3)nc12` [Example 18, (S)—N-(1-Azabicyclo[2.2.2]oct-3-yl)-2-cyclobutylbenzoxazole-4-carboxamide Hydrochloride] the same measures were 0.007 µM and 108%.
For `O=C(N[C@@H]1CN2CCC1CC2)c1cccc2oc(CC3CC3)nc12` [Example 12, (S)—N-(1-Azabicyclo[2.2.2]oct-3-yl)-2-(cyclopropylmethyl)benzoxazole-4-carboxamide Hydrochloride] the same measures were 0.026 µM and 90.6%.
Compound `Cc1nc2c(C(=O)N[C@@H]3CN4CCC3CC4)cccc2o1` [Example 35, (S)—N-(1-Azabicyclo[2.2.2]oct-3-yl)-2-methylbenzoxazole-4-carboxamide] displayed a Ki at human 5-HT3 receptor [1] of 0.012 µM. For the same compound, the inhibition at 0.1 µM on mouse 5-HT3 receptor was 83%.
Take `O=C(N[C@@H]1CN2CCC1CC2)c1cccc2oc(Cc3ccccc3)nc12` [Example 10, (S)—N-(1-Azabicyclo[2.2.2]oct-3-yl)-2-benzylbenzoxazole-4-carboxamide Hydrochloride]: the Ki at human 5-HT3 receptor [1] (setting [3]) came to 0.021 µM.
`CN1[C@@H]2CCC[C@H]1C[C@@H](NC(=O)c1cccc3oc(C4CCC4)nc13)C2` [Example 17, Endo-N-(9-Methyl-9-azabicyclo[3.3.1]non-3-yl)-2-cyclobutylbenzoxazole-4-carboxamide Hydrochloride] registered a Ki at human 5-HT3 receptor [1] of 0.007 µM. Besides, the inhibition at 0.1 µM at mouse 5-HT3 receptor was found to be 108%.
On human 5-HT3 receptor [1], `CN1[C@@H]2CCC[C@H]1C[C@@H](NC(=O)c1cccc3oc(Cc4ccccc4)nc13)C2` [Example 9, Endo-N-(9-Methyl-9-azabicyclo[3.3.1]non-3-yl)-2-benzylbenzoxazole-4-carboxamide Hydrochloride] registered a Ki of 0.011 µM. On mouse 5-HT3 receptor, the inhibition at 0.1 µM amounted to 94.7%.
As for `CN1[C@@H]2CCC[C@H]1C[C@@H](NC(=O)c1cc(F)cc3oc(C4CC4)nc13)C2` [Example 20, Endo-N-(9-Methyl-9-azabicyclo[3.3.1]non-3-yl)-6-fluoro-2-cyclopropylbenzoxazole-4-carboxamide Hydrochloride], the inhibition constant (Ki) at human 5-HT3 receptor [1] (setting [3]) is 0.0054 µM.
With `CC(=O)N1CCC(c2nc3c(C(=O)N[C@H]4C[C@H]5CCC[C@@H](C4)N5C)cccc3o2)CC1` [Example 23, Endo-N-(9-methyl-9-azabicyclo[3.3.1]non-3-yl)-2-(1-acetylpiperidin-4-yl)benzoxazole-4-carboxamide Hydrochloride], the Ki at human 5-HT3 receptor [2] (setting [4]) is 0.0366 µM.
On human 5-HT3 receptor [1], `Cc1nc2c(C(=O)N[C@H]3C[C@H]4CCC[C@@H](C3)N4C)cccc2o1` [Example 34, Endo-N-(9-Methyl-9-azabicyclo[3.3.1]non-3-yl)-2-methylbenzoxazole-4-carboxamide] gave a Ki of 0.0055 µM. Also, the inhibition at 0.1 µM on mouse 5-HT3 receptor turned out to be 79%.
The corresponding values for `CC(C)(C)c1nc2c(C(=O)N[C@@H]3CN4CCC3CC4)cccc2o1` [Example 4, (S)—N-(1-Azabicyclo[2.2.2]oct-3-yl)-2-tert-butylbenzoxazole-4-carboxamide] are 0.03 µM and 94.3%.
On human 5-HT3 receptor [1], `CN1[C@@H]2CCC[C@H]1C[C@@H](NC(=O)c1cccc3oc(C4(C)CC4)nc13)C2` [Example 7, Endo-N-(9-Methyl-9-azabicyclo[3.3.1]non-3-yl)-2-(1-methylcyclopropyl)benzoxazole-4-carboxamide Hydrochloride] gave a Ki of 0.0033 µM. The inhibition at 0.1 µM on mouse 5-HT3 receptor was 96.7%.
Take `CN1[C@@H]2CCC[C@H]1C[C@@H](NC(=O)c1cccc3oc(C4CCCC4)nc13)C2` [Example 5, Endo-N-(9-Methyl-9-azabicyclo[3.3.1]non-3-yl)-2-cyclopentylbenzoxazole-4-carboxamide Hydrochloride]: the inhibition at 0.1 µM at mouse 5-HT3 receptor was found to be 96.2%. This compound also returned a Ki on human 5-HT3 receptor [2] of 0.00227 µM.
Regarding `CN1[C@@H]2CCC[C@H]1C[C@@H](NC(=O)c1cccc3oc(C4CCOCC4)nc13)C2` [Example 24, Endo-N-(9-methyl-9-azabicyclo[3.3.1]non-3-yl)-2-(tetrahydro-2H-pyran-4-yl)benzoxazole-4-carboxamide Hydrochloride], the inhibition constant Ki on human 5-HT3 receptor [2] (setting [4]) was 0.0176 µM.
`CC1(c2nc3c(C(=O)N[C@@H]4CN5CCC4CC5)cccc3o2)CC1` [Example 8, (S)—N-(1-Azabicyclo[2.2.2]oct-3-yl)-2-(1-methylcyclopropyl)benzoxazole-4-carboxamide Hydrochloride] had a Ki on human 5-HT3 receptor [1] of 0.019 µM. Besides, the inhibition at 0.1 µM on mouse 5-HT3 receptor came out at 97.6%.
Consider `O=C(N[C@@H]1CN2CCC1CC2)c1cccc2ocnc12` [Example 22, (S)—N-(1-Azabicyclo[2.2.2]oct-3-yl)-benzoxazole-4-carboxamide Hydrochloride], for which the Ki at human 5-HT3 receptor [2] (setting [4]) was 0.0166 µM.
